# Measured values: patent EP2818471A1, “Nitrogen bicyclic compounds as inhibitors for Scyl1 and Grk5” (Max-Planck-Gesellschaft zur Förderung der Wissenschaften …, priority 2013, dated 2014)
# System: beta-TC6 cells
# Assay: Insulin HTRF assay, relative activity Ar normalized to sunitinib
# Assay type: cell-based
# Settings: Mus musculus, normalized to positive control sunitinib (5 µM = 100%), Table 10
# How it was run: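 Relative activity Ar was scaled between 0% and 100% controls, with sunitinib at 5 µM f.c. as reference. Insulin released by beta-TC6 cells was quantified by sandwich HTRF (Eu-cryptate/XL665 antibodies, 120 min RT). Cells had been seeded 24 or 48 h, then treated 2–4 h at 37°C in induction buffer, 0.5% DMSO.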
row,Compound,Emax
1,"Clc1cccc(-c2nnc3ccc(-c4ccncc4)cn23)c1 [compound 199, 3-(3-chlorophenyl)-6-(4-pyridyl)-[1,2,4]triazolo[4,3-a]pyridine]",50 to 100%
2,"Clc1cccc(-c2nnc3ccc(-c4cccnc4)cn23)c1 [compound 200, 3-(3-chlorophenyl)-6-(3-pyridyl)-[1,2,4]triazolo[4,3-a]pyridine]",50 to 100%
3,"CC(=O)Nc1ccc(-c2ccc3nnc(-c4cccc(Cl)c4)n3c2)cc1 [compound 202, N-[4-[3-(3-chlorophenyl)-[1,2,4]triazolo[4,3-a]pyridin-6-yl]phenyl]acetamide]",20 to 50%
4,"Clc1cccc(-c2nnc3ccc(-c4cncnc4)cn23)c1 [compound 203, 3-(3-chlorophenyl)-6-pyrimidin-5-yl-[1,2,4]triazolo[4,3-a]pyridine]",20 to 50%
5,"Clc1cccc(-c2nnc3ccc(-c4ncccn4)cn23)c1 [compound 204, 3-(3-chlorophenyl)-6-pyrimidin-2-yl-[1,2,4]triazolo[4,3-a]pyridine]",10 to 20%
6,"Clc1cccc(-c2nnc3ccc(-c4cncc5ccccc45)cn23)c1 [compound 205, 4-[3-(3-chlorophenyl)-[1,2,4]triazolo[4,3-a]pyridin-6-yl]isoquinoline]",50 to 100%
7,"N#Cc1ccc(-c2ccc3nnc(-c4cccc(O)c4)n3c2)cc1 [compound 206, 4-[3-(3-hydroxyphenyl)-[1,2,4]triazolo[4,3-a]pyridin-6-yl]benzonitrile]",50 to 100%
8,"Oc1cccc(-c2nnc3ccc(-c4ccc(F)cc4)cn23)c1 [compound 208, 3-[6-(4-fluorophenyl)-[1,2,4]triazolo[4,3-a]pyridin-3-yl]phenol]",50 to 100%
9,"Oc1cccc(-c2nnc3ccc(-c4cccc5ncccc45)cn23)c1 [compound 209, 3-[6-(5-quinolyl)-[1,2,4]triazolo[4,3-a]pyridin-3-yl]phenol]",20 to 50%
10,"COc1cc(-c2ccc3nnc(-c4cccc(C(F)(F)F)c4)n3c2)cc(OC)c1OC [compound 210, 3-[3-(trifluoromethyl)phenyl]-6-(3,4,5-trimethoxyphenyl)-[1,2,4]triazolo[4,3-a]pyridine]",50 to 100%
11,"CN(C)CCCNC(=O)c1ccc(-c2ccc3nnc(-c4cccc(C(F)(F)F)c4)n3c2)cc1 [compound 211, N-[3-(dimethylamino)propyl]-4-[3-[3-(trifluoromethyl)phenyl]-[1,2,4]triazolo[4,3-a]pyridin-6-yl]benzamide]",20 to 50%
12,"O=C(c1ccc(-c2ccc3nnc(-c4cccc(C(F)(F)F)c4)n3c2)cc1)N1CCOCC1 [compound 212, morpholino-[4-[3-[3-(trifluoromethyl)phenyl]-[1,2,4]triazolo[4,3-a]pyridin-6-yl]phenyl]methanone]",20 to 50%
13,"CN(C)C(=O)c1ccc(-c2ccc3nnc(-c4cccc(C(F)(F)F)c4)n3c2)cc1 [compound 213, N,N-dimethyl-4-[3-[3-(trifluoromethyl)phenyl]-[1,2,4]triazolo[4,3-a]pyridin-6-yl]benzamide]",20 to 50%
14,"Nc1ccc(-c2ccc3nnc(-c4cccc(C(F)(F)F)c4)n3c2)cn1 [compound 214, 5-[3-[3-(trifluoromethyl)phenyl]-[1,2,4]triazolo[4,3-a]pyridin-6-yl]pyridin-2-amine]",20 to 50%
15,"COc1cc(-c2nnc3ccc(-c4ccc(N5CCN(C)CC5)cc4)cn23)ccc1O [compound 215, 2-methoxy-4-[6-[4-(4-methylpiperazin-1-yl)phenyl]-[1,2,4]triazolo[4,3-a]pyridin-3-yl]phenol]",20 to 50%
16,"COc1ccc(-c2ccc3nnc(-c4ccc(O)c(OC)c4)n3c2)cn1 [compound 216, 2-methoxy-4-[6-(6-methoxy-3-pyridyl)-[1,2,4]triazolo[4,3-a]pyridin-3-yl]phenol]",50 to 100%
17,"COc1cc(-c2nnc3ccc(-c4cccc(F)c4)cn23)ccc1O [compound 217, 4-[6-(3-fluorophenyl)-[1,2,4]triazolo[4,3-a]pyridin-3-yl]-2-methoxy-phenol]",50 to 100%

row,Compound,Emax
1,"COc1cc(-c2nnc3ccc(-c4ccccc4C)cn23)ccc1O [compound 218, 2-methoxy-4-[6-(o-tolyl)-[1,2,4]triazolo[4,3-a]pyridin-3-yl]phenol]",50 to 100%
2,"COc1cc(-c2ccc3nnc(-c4ccoc4)n3c2)cc(OC)c1OC [compound 219, 3-(3-furyl)-6-(3,4,5-trimethoxyphenyl)-[1,2,4]triazolo[4,3-a]pyridine]",50 to 100%
3,"COc1ccc(-c2ccc3nnc(-c4ccoc4)n3c2)cc1 [compound 220, 3-(3-furyl)-6-(4-methoxyphenyl)-[1,2,4]triazolo[4,3-a]pyridine]",50 to 100%
4,"c1csc(-c2ccc3nnc(-c4ccoc4)n3c2)c1 [compound 221, 3-(3-furyl)-6-(2-thienyl)-[1,2,4]triazolo[4,3-a]pyridine]",50 to 100%
5,"N#Cc1cccc(-c2nnc3ccc(-c4ccccn4)cn23)c1 [compound 222, 3-[6-(2-pyridyl)-[1,2,4]triazolo[4,3-a]pyridin-3-yl]benzonitrile]",20 to 50%
6,"COc1ccc(-c2ccc3nnc(-c4ccccc4C)n3c2)cc1OC [compound 223, 6-(3,4-dimethoxyphenyl)-3-(o-tolyl)-[1,2,4]triazolo[4,3-a]pyridine]",50 to 100%
7,"Cc1ccccc1-c1nnc2ccc(-c3cccc(C(=O)NCCO)c3)cn12 [compound 224, N-(2-hydroxyethyl)-3-[3-(o-tolyl)-[1,2,4]triazolo[4,3-a]pyridin-6-yl]benzamide]",10 to 20%
8,"Cc1ccccc1-c1nnc2ccc(-c3ccc(C(N)=O)cc3)cn12 [compound 225, 4-[3-(o-tolyl)-[1,2,4]triazolo[4,3-a]pyridin-6-yl]benzamide]",20 to 50%
9,"c1nc(-c2nnc3ccc(-c4ccc(N5CCOCC5)cc4)cn23)cs1 [compound 226, 4-[4-(3-thiazol-4-yl-[1,2,4]triazolo[4,3-a]pyridin-6-yl)phenyl]morpholine]",50 to 100%
10,"CN(C)c1cccc(-c2ccc3nnc(-c4cscn4)n3c2)c1 [compound 227, N,N-dimethyl-3-(3-thiazol-4-yl-[1,2,4]triazolo[4,3-a]pyridin-6-yl)aniline]",50 to 100%
11,"Fc1ccc(-c2ccc3nnc(-c4cscn4)n3c2)cc1Cl [compound 228, 4-[6-(3-chloro-4-fluoro-phenyl)-[1,2,4]triazolo[4,3-a]pyridin-3-yl]thiazole]",20 to 50%
12,"c1cc2cc(-c3ccc4nnc(-c5cscn5)n4c3)ccc2[nH]1 [compound 229, 4-[6-(1H-indol-5-yl)-[1,2,4]triazolo[4,3-a]pyridin-3-yl]thiazole]",50 to 100%
13,"NC(=O)c1cccc(-c2ccc3nnc(-c4cscn4)n3c2)c1 [compound 230, 3-(3-thiazol-4-yl-[1,2,4]triazolo[4,3-a]pyridin-6-yl)benzamide]",20 to 50%
14,"COc1ccc(-c2ccc3nnc(-c4cscn4)n3c2)c(C)c1 [compound 231, 4-[6-(4-methoxy-2-methyl-phenyl)-[1,2,4]triazolo[4,3-a]pyridin-3-yl]thiazole]",50 to 100%
15,"O=S1(=O)CCN(CC#Cc2ccc3nnc(-c4cscn4)n3c2)CC1 [compound 232, 4-[3-(3-thiazol-4-yl-[1,2,4]triazolo[4,3-a]pyridin-6-yl)prop-2-ynyl]-1,4-thiazinane 1,1-dioxide]",10 to 20%
16,"Clc1ccccc1-c1ccc2nnc(-c3cscn3)n2c1 [compound 233, 4-[6-(2-chlorophenyl)-[1,2,4]triazolo[4,3-a]pyridin-3-yl]thiazole]",50 to 100%
